Laboratory results published in patent US20230132667A1, “DRUG-LIKE MOLECULES AND METHODS FOR THE THERAPEUTIC TARGETING OF VIRAL RNA STRUCTURES” (UNIVERSITY OF WASHINGTON, priority 2020, published 2023).
Non-standard residues stand in square brackets, D forms with d. Agb = N=C(N)NCC[C@H](N)C(=O)O; Dab = NCC[C@H](N)C(=O)O

Experiments:
[1] = target: HIV TAR; assay: 2-aminopurine (2AP) fluorescence binding assay; design: species or system HIV-1; conditions: 2AP-labeled HIV TAR, excess tRNA; single binding event; read-out: affinity by fitting Equation 1
Protocol: The fourth stage in the screening cascade quantifies binding using an orthogonal biophysical method.
To quantify binding of the compounds to HIV TAR, a 2-amino purine method was used. In this assay, U25 on HIV TAR was substituted with 2-aminopurine and binding assays were conducted on a Horiba Tau fluorometer.
2-AP binding assays. Fluorescence intensity binding assays were conducted using a method based on the incorporation of a single fluorescent base analogue (2-amino-purine, 2AP) in place of U25 for HIV TAR, and by monitoring changes in the reporter emission fluorescence intensity at 362 nm upon small molecule titration. Each experiment was collected in duplicate with 50 nM 2AP-TAR titrated with 5 mL of ligand stock solutions prepared by serial dilution. Methods were followed with 250×fold excess yeast tRNA added to the buffer as a competitor to reduce non-specific binding. Data were collected on a Horiba FL3-21tau Fluorescence Spectrophotometer, exported to Graphpad Prism v.8.1.1 and fit to Equation 1.
where Y is the measured fluorescence at 362 nm, Yi is fluorescence of the fully bound target, Yo is the fluorescence of the unbound RNA, Rt is total RNA concentration, Lt is total ligand concentration and Kd is the binding affinity.

[2] = test system: HIV TAR; assay: Single point ligand-detected NMR relaxation assay in low salt buffer (stage 1); assay type: binding, HIV-1; conditions: 100 μM small molecule in low salt buffer, 10 μM RNA
From the text: (§1) For initial screening and hit identification, a relaxation edited ligand-detect method is used to detect binding under low salt conditions. These initial conditions are chosen to facilitate the discovery of even low affinity compounds with favorable chemical characteristics. Binding compounds are identified through changes in peak height when comparing spectra for RNA-free and RNA-bound ligand (FIG. 8). The change in peak height is proportional to the increase in ligand line width, compared to the free small molecule, which occurs upon binding to the larger biomolecule. This NMR method is agnostic to biomolecular target, as it only depends on the longer rotational correlation time (Tc) of the small molecule bound in a complex with a much larger biomolecular target, which has a much […] correlation time; other NMR methods (e.g., STD) can be used as well.
(§2) Stage 1. […] The free ligand linewidths of compounds dissolved at concentration of 100 μM were quantified and compared to the ligand linewidths observed after addition of 10 μM RNA target. […]
(§3) Small molecule hit identification and tiered approach to ligand-detected NMR screening. In order to identify small molecules that bind to RNA and quantify the strength of the interaction, a tiered approach to NMR screening involving both ligand- and target-detected NMR experiments was used. […]

[3] = test system: pre-miR-21; assay: as above; assay type: binding; conditions: 100 μM small molecule in low salt buffer, 10 μM RNA
From the text: as §1, §2, §3

[4] = test system: HIV TAR; assay: Target-detected NMR (TOCSY, 1D imino spectra; stage 3); assay type: binding, HIV-1; conditions: chemical shift changes, TOCSY / 1D 1H imino spectra
Protocol: Stage 3. The third stage in the screening cascade involves monitoring changes in the NMR spectra of the RNA target to identity where on the target the compound binds and examine the structural characteristics of the interaction. This step is conducted in the same […] buffer used for screening, prepared either in 95% H2O/5% D2O (water buffer) or 99.99% D2O (D2O buffer) to monitor different classes of proton resonances (FIGS. 10A and 10B). Uniform labeling of bases with ^13C and ^15N can also be performed, but this is relatively expensive.
Target detect NMR assays to measure RNA-ligand interactions. Transcribed RNA sequences (at natural isotopic abundance, along with ^15N/^13C enriched or selectively labeled ^2H samples) are snap-cooled in 250-500 μL NMR buffer (50 mM d9 bis-Tris pH 6.5, 50 mM NaCl) by heating to 95° C. for 4 min then placed at −20° C. until frozen. All ligand stocks were dissolved in 10-20 mM H2O, D2O or DMSO depending on ligand solubility. […] Ligand interactions are detected by changes in chemical shift through a series of NMR experiments, including but not limited to 1D ^1H and 2D ^1H-^1H TOCSY, ^1H-^1H NOESY, ^1H-^1H EXSY, ^15N-^1H HSQC, and ^13C-^1H HSQC experiments, which are used to map the binding site of the ligand on the RNA. […]

[5] = test system: Tat-dependent reactivation; conditions: cited from earlier work

Molecule	Kd [1]	single point binding response to HIV TAR [2]	single point binding response to pre-miR-21 [3]	binding to HIV TAR by target-detected NMR (qualitative) [4]	inhibition of Tat-dependent reactivation in cells [5]
CN(C)C(=O)c1cc2cnc(Nc3ccc(N4CCNCC4)cn3)nc2n1C1CCCC1 [Ribociclib]	215 ± 56 nM	binding responses	binding responses	high nM binding	–
cyclo(P(dab)VRTRKGRRI(NOR)Ip) (cyclo(P[Dab]VRTRKGRRI[Agb]I[dP])) [JB181]	–	–	–	–	only moderately inhibits
